Laboratory results: article PMC4257840 (Journal of Medicinal Chemistry, 2014)

Columns and labels:
[1] = target: T1, Der p 1 (Dermatophagoides pteronyssinus, UniProt P08176); experiment: biochemical; format: biochemical; conditions: mean ± SE
T1 sequence (P08176 99-320): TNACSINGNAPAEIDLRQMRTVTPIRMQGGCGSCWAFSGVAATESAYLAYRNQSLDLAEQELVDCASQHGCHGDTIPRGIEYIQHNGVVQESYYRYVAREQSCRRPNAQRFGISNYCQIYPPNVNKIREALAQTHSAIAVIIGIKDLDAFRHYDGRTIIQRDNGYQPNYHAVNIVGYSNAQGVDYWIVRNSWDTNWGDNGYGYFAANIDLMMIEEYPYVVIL
Procedure: Automated screening of inhibitory activity toward group 1 HDM peptidase allergens was performed as described elsewhere[25],[43] with the minor modification that Der p 1 or Der f 1 were incubated with inhibitors for 20 min prior to initiation of reactions by addition of substrate. In initial screening, the activity of each compound was measured using a series of 10 doubling dilutions from a starting concentration of 50 μM. […] Assays were performed in triplicate for calculation of mean ± SE IC50 values.

[2] = system: rat alveolar macrophage line NR8383; experiment: Stability in the presence of airway macrophages; format: in vitro ADME
Procedure: Stability in the presence of epithelial cells and ma crophages.
NR8383 Airway macroph a ges
were grown in suspension culture in F12K, collected b y centrifugation, washed in serum-free
exposed to test compounds in serum-free F12K at a standard concentration of 100 nM in a 5%
CO2 environment at 37 °C. Samples were removed at selected time points for quantitative
Assa ys w ere p er formed in replicate and t he data ex pressed as mean ± SE.

[3] = target: human liver Cat B (Homo sapiens, UniProt P07858); experiment: Cathepsin B inhibition assay; conditions: read-out: Cat B IC50; mean ± SE
Procedure: Inhibition of Cat B was measured as described with modifications.[25] […] Progress curves were followed at 30 °C by detection of fluorescence at 320/420 nm (excitation/emission).
(§3) In all cases, for reactions involving inhibitors, the amount of reaction buffer was adjusted to 60 μL, the inhibitor added as a 10 μL aliquot, and incubated for 20 min with the enzyme prior to reaction start.

[4] = target: T1, Der p 1; design: method as in PMID 9871695; conditions: irreversible acyloxymethyl ketone inhibitors, Figure 1; cited from earlier work
[5] = Measurement of LogD7.4 (n-octanol/PBS shake); format: physicochemical; conditions: for logD at 1.5 h: single determination, n-octanol/PBS pH 7.4, read-out: Log D7.4
Procedure: Appendix 4. Measurement of LogD7.4
Test compounds (~1 mg) were weighed into 2 mL HPLC vials. n- Octanol (0.7 mL), pre-saturated with 10 mM phosphate buffered saline pH7.4 (PBS), was added to each vial followed b y PBS (0. 7 mL), which had been pre-saturat ed with n-octanol. The mixtures were shaken for 90 min and then centrifuged for 10 min at 4,000 rpm. The upper organic l ayer (0.2 m L) and the aqueous la yer (0.5 mL) were removed from each vial and anal yz e d b y LC -MS. Mass spect ral anal ysis was used to confirm peak identity whilst the concentration of compound was assessed by a diode arra y det ecto r. The logD for each compound was calculated b y takin g th e lo g of its concentration ratio between the oct anol and aqueous la ye r s.Given the robustness of the assa y and the fact that the info rmation was us ed onl y for gen eral guid ance, thes e measu rements were based on singlicate det erminations.

[6] = Pharmacokinetics after oral and iv dosing to rats; format: in vivo, Sprague-Dawley rat; conditions: for Cmax / bioavailability: male, Sprague-Dawley, plasma; for Cmax / bioavailability / free conc Cmax: rat; for Cmax / free conc Cmax: 5 mg/kg po; for bioavailability: po, 5 mg/kg, read-out: F % (bioavailability)
Procedure: (§1) Appendix 2. Pharmaco kinetics an d P l a s ma Protein Binding […]
Pharma cokinetics. In vivo PK characteristics were determined using non- fasted Sprague-Dawle y rats (mal e, 200-300 g, 10- 16 weeks of age) with groups of three animals per route per compound. Soluble formulations were developed and verified b y HP LC/UV s o that compounds were dosed discretel y b y the iv (1 mg/kg, 1 mL/kg) and po (5 mg/kg, 5 mL/kg) routes. Blood samples were obtained at various times after dosing and plasma prepared for LC -MS-MS quantification of the test substance after inclusion of an intern al standard . PK p aramet ers were calculated usin g a non -compartmental model in WinNonlin v5.2.
(§2) Plasma Protein Binding Assay. PPB was determined with a Rapid Equilibrium Dialysis device using 8 kDa molecular weight cut-off inserts (Fisher Scientific UK Ltd, Leicest ershire, UK) as described b y the manufacturer. R at (Sprague Dawl e y strain) plasma EDTA K2 (mixed gender, pooled, SeraLab, West Sussex, UK) was thawed and centrifuged at 13,000 x g for 10 min to remove precipitates before being spiked with compounds (5 µM). The concentrations of compounds in the plasma and buffer chambers were determined b y LC -MS-MS (AB Sciex 3200 QTrap) anal ysis after 4 h incubation at 37 °C. Binding was calculated from the concentration percentage in both chambers as shown below. Assays were p erfo rmed in replicate and the data

[7] = Plasma protein binding, Rapid Equilibrium Dialysis; format: in vitro ADME; conditions: both sexes, Sprague Dawley, plasma (EDTA K2, pooled), rat plasma, 4 h at 37 °C, read-out: PPB (converted)
Procedure: as §1, §2

[8] = system: nonsensitized rats challenged with a natural mixture of HDM allergens; conditions: for duration of protection: trend of inhibition of eosinophil recruitment with increasing pre-treatment interval: i.t. aerosol typically 60-360 min prior to allergen challenge, unsensitised BN rats; for efficacy, inhibition of eosinophil recruitment: rat, in vivo
[9] = target: Der f 1 (Dermatophagoides farinae, UniProt P16311); experiment: Group 1 HDM peptidase allergen inhibition assay (Der f 1); format: biochemical, D. farinae; conditions: in vitro enzymatic assay, mean ± SE
Procedure: Automated screening of inhibitory activity toward group 1 HDM peptidase allergens was performed as described elsewhere[25],[43] with the minor modification that Der p 1 or Der f 1 were incubated with inhibitors for 20 min prior to initiation of reactions by addition of substrate. In initial screening, the activity of each compound was measured using a series of 10 doubling dilutions from a starting concentration of 50 μM. Compounds showing optimizable activity were cherry-picked for multiple (up to six) rounds of rescreening to confirm activity and stability and to determine IC50 values over a range of concentrations that were compound-directed by initial screening. Assays were performed in triplicate for calculation of mean ± SE IC50 values.

[10] = system: sensitized BN rats challenged with mixed HDM allergens; experiment: HDM allergen challenge of sensitized BN rats, BAL cells; format: in vivo, Brown Norway rat; conditions: single dose 12 μg/kg (18 nmol/kg) 2 h prior to challenge, BAL 48 h
Excerpt: For other studies, rats were actively sensitized to a natural mixture of HDM allergens prepared from laboratory cultures of Dermatophagoides pteronyssinus. Animals were sensitized by the ip route in the absence of additional adjuvant on day 0, 7, and 14. […] Negative control groups comprised naïve, unsensitized animals or those sham-sensitized with vehicle solution.
Test ADIs were delivered as intratracheal aerosols of 25–30 μm mass median diameter from a Penn-Century IA-1B microsprayer at various times prior to allergen challenge. Allergen or vehicle challenge was similarly delivered by Penn-Century microsprayer on day 21 of the protocol. These procedures were conducted under anesthesia with isoflurane in oxygen. Test ADIs were generally dosed in a constant 50:1 molar ratio to the Der p 1 content of the allergen challenge mixture.
Animals were killed by sodium pentobarbital overdose 48 h after allergen challenge because this is the optimal sampling point to assess the recruitment of eosinophils (our unpublished observations). The airways were lavaged with 3 × 4 mL aliquots of Hanks’ Balanced Salt Solution and the recovered cells pooled and counted automatically (ADVIA; Bayer Healthcare, Diagnostics Division, UK). […] Cells were counted by an independent observer using light microscopy under oil immersion (×1000). […]

[11] = target: recombinant human Cat S (Homo sapiens, UniProt P25774); experiment: Cathepsin S inhibition assay; format: biochemical; conditions: in vitro enzymatic assay, mean ± SE; read-out: Cat S
Procedure: as §3

[12] = 5 mg/kg po compared with 1 mg/kg iv, nonfasted Sprague–Dawley rats, mean ± SE, n = 3

Der f 1, sequence (P16311 99-321): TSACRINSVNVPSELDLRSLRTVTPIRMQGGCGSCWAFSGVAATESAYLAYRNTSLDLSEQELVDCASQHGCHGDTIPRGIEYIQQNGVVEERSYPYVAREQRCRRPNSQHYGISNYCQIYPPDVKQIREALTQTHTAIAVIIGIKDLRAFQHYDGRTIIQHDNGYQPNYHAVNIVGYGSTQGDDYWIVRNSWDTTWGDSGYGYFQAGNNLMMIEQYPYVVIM
recombinant human Cat S, sequence (P25774 115-331): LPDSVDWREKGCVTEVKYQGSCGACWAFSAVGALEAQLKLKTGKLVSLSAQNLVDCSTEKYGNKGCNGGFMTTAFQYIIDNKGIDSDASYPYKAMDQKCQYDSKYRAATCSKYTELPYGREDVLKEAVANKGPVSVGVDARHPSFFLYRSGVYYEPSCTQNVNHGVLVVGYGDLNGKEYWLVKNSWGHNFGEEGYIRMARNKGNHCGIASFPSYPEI

| Structure (SMILES) | IC50 [1] | IC50 [3] | logD at 1.5 h [5] | Cmax ([6]; mean ± SE, n = 3) | bioavailability [6, 12] | free conc Cmax [6] | fraction unbound at 4 h, 5 µM [7] | duration of protection: trend of inhibition of eosinophil recruitment with increasing pre-treatment interval [8] | further results |
| --- | --- | --- | --- | --- | --- | --- | --- | --- | --- |
| CC(C)C(NC(=O)[C@H](C)NC(=O)[C@H](Cc1ccccc1)NC(=O)c1ccccc1)C(=O)C(=O)NC1CCCCC1 (mixture of isomers) [Compound 19] | 18 ± 2 nM | 52 ± 5 nM | – | – | – | – | – | – | remaining unchanged (processing by airway macrophages) ([2]; after 2 h): ~70% |
| CCCC[C@H](NC(=O)[C@H](C)NC(=O)[C@@H](NC(=O)c1ccccc1)C(C)C)C(=O)COC(=O)c1ccccc1 [Compound 1] | – | – | – | – | – | – | – | – | Kobs/[I] [4]: 210000 M⁻¹ s⁻¹ |
| CCCC[C@H](NC(=O)[C@H](C)NC(=O)[C@@H](NC(=O)c1ccccc1)C(C)C)C(=O)COC(=O)c1c(C(F)(F)F)cccc1C(F)(F)F [Compound 2] | – | – | – | – | – | – | – | – | Kobs/[I] [4]: 1.6e+06 M⁻¹ s⁻¹ |
| CCCC[C@H](NC(=O)[C@H](C)NC(=O)[C@H](Cc1ccccc1)NC(=O)c1ccccc1)C(=O)C(=O)NC1CCCCC1 [Compound 5, N-{(S)-1-[(S)-1-((S)-1-Cyclohexylaminooxalyl-pentylcarbamoyl)-ethylcarbamoyl]-2-phenyl-ethyl}-benzamide] | – | – | – | – | – | – | – | – | degraded by airway macrophages ([2]; over a 2 h period): > 50% |
| CC(C)[C@H](NC(=O)[C@H](C)NC(=O)[C@@H](NC(=O)c1ccccc1)C(C)(C)C)C(=O)C(=O)NC1CCCCC1 [Compound 22, N-{(S)-1-[(S)-1-((S)-1-Cyclohexylaminooxalyl-2-methyl-propylcarbamoyl)-ethylcarbamoyl]-2,2-dimethyl-propyl}-benzamide] | 14 ± 3 nM | 378 ± 27 nM | 3.9 | – | – | – | – | – | degradation by airway macrophages ([2]; over 2 h): no significant degradation |
| CC(C)[C@H](NC(=O)[C@H](C)NC(=O)[C@@H](N1Cc2ccccc2C1=O)C(C)(C)C)C(=O)C(=O)NCc1ccccc1 [Compound 28, (S)-3-{(S)-2-[(S)-3,3-Dimethyl-2-(1-oxo-1,3-dihydro-isoindol-2-yl)-butyrylamino]-propionylamino}-4-methyl-2-oxo-pentanoic Acid Benzylamide] | 7 ± 1 nM | 429 ± 65 nM | 3.6 | 663 ± 26 nM | 20 ± 1% | 11 ± 0 nM | 0.02 | – | – |
| CC(C)[C@H](NC(=O)[C@H](C)NC(=O)[C@@H](NC(=O)c1ccncc1)C(C)(C)C)C(=O)C(=O)NC1CCCCC1 [Compound 29, N-{(S)-1-[(S)-1-((S)-1-Cyclohexylaminooxalyl-2-methyl-propylcarbamoyl)-ethylcarbamoyl]-2,2-dimethyl-propyl}-isonicotinamide] | 13 ± 1 nM | 231 ± 17 nM | 2.8 | – | – | – | – | rise to a peak | – |
| CC(C)[C@H](NC(=O)[C@H](C)NC(=O)[C@@H](NC(=O)C1CC[N+](C)(C)CC1)C(C)(C)C)C(=O)C(=O)NCc1ccccc1.O=C[O-] [Compound 32, 4-{(S)-1-[(S)-1-((S)-1-Benzylaminooxalyl-2-methyl-propylcarbamoyl)-ethylcarbamoyl]-2,2-dimethyl-propylcarbamoyl}-1,1-dimethyl-piperidinium Formate] | – | 274 ± 44 nM | -0.9 | 20 ± 13 nM | 1% | 8 ± 0 nM | 0.388 | – | IC50 [9]: 4 nM; F % (bioavailability) [6, 12]: 0.6 ± 0.2%; eosinophil recruitment [10]: marked inhibition; increase in total nucleated cells recoverable by BAL [10]: significantly blunted; efficacy, inhibition of eosinophil recruitment [8]: Good efficacy |
| CC(C)[C@H](NC(=O)[C@H](C)NC(=O)[C@@H](NC(=O)c1ccccc1)C(C)(C)C)C(=O)C(=O)NC1CC1 [Compound 35] | 17 ± 1 nM | 417 ± 25 nM | 2.4 | 1140 ± 268 nM | 90 ± 11% | 176 ± 0 nM | 0.155 | rise to well-maintained | logD ([5]; pH 7.4, versus compound 22, read-out: reduction of measured log D on replacing cyclohexyl (22) by cyclopropyl): ~1.5 |
| CC(C)[C@H](NC(=O)[C@H](C)NC(=O)[C@H](Cc1ccccc1)NC(=O)c1ccccc1)C(=O)C(=O)NCC(=O)N1CCN(C)CC1 [Compound 45, N-[(S)-1-((S)-1-{(S)-2-Methyl-1-[2-(4-methyl-piperazin-1-yl)-2-oxo-ethylaminooxalyl]-propylcarbamoyl}-ethylcarbamoyl)-2-phenyl-ethyl]-benzamide] | 14 ± 1 nM | 544 ± 40 nM | 1.3 | – | – | – | – | waned | – |
| CC(C)[C@H](NC(=O)[C@H](C)NC(=O)[C@H](Cc1ccccc1)NC(=O)c1ccccc1)C(=O)C(=O)NCC(=O)N1CCOCC1 [Compound 47, N-((S)-1-{(S)-1-[(S)-2-Methyl-1-(2-morpholin-4-yl-2-oxo-ethylaminooxalyl)-propylcarbamoyl]-ethylcarbamoyl}-2-phenyl-ethyl)-benzamide] | 9 ± 1 nM | 88 ± 10 nM | 1.7 | – | – | – | – | rise to a peak | – |
| CC(C)[C@H](NC(=O)[C@H](C)NC(=O)[C@H](Cc1ccccc1)NC(=O)c1ccccc1)C(=O)C(=O)NCC(=O)N1CC[N+](C)(C)CC1.O=C[O-] [Compound 52, 4-(2-{(S)-3-[(S)-2-((S)-2-Benzoylamino-3-phenyl-propionylamino)-propionylamino]-4-methyl-2-oxo-pentanoylamino}-acetyl)-1,1-dimethyl-piperazin-1-ium Formate] | – | > 2500 nM | -0.6 | 7 ± 2 nM | 0% | 3 ± 0 nM | 0.365 | – | IC50 [9]: 11 ± 1 nM; IC50 [11]: 114 ± 7 nM; efficacy, inhibition of eosinophil recruitment [8]: Good efficacy |
| CC(C)[C@H](NC(=O)[C@H](C)NC(=O)[C@H](Cc1ccccc1)NC(=O)c1cccc2ccccc12)C(=O)C(=O)NCC(=O)N1CCN(C)CC1 [Compound 53, Naphthalene-1-carboxylic Acid [(S)-1-((S)-1-{(S)-2-Methyl-1-[2-(4-methyl-piperazin-1-yl)-2-oxo-ethylaminooxalyl]-propylcarbamoyl}-ethylcarbamoyl)-2-phenyl-ethyl]-amide] | 20 ± 3 nM | 540 ± 28 nM | 2 | – | – | – | – | waned | – |
